PMC8817134, “Galangin as a direct inhibitor of vWbp protects mice from Staphylococcus aureus‐induced pneumonia” (Journal of Cellular and Molecular Medicine, 2021)

Tests used:
[1] = target: T1, vWbp (von Willebrand factor-binding protein) (Staphylococcus aureus, UniProt Q93SM9, D70A); assay: biochemical
T1 construct: gene vwb
Text: (§1) fluorescence quenching on vWbp (von Willebrand factor-binding protein)

[2] = target: T2, vWbp (von Willebrand factor-binding protein) (Staphylococcus aureus, UniProt Q93SM9, W64A); assay: biochemical
T2 construct: gene vwb
Text: as §1

[3] = target: T3, vWbp (von Willebrand factor-binding protein) (Staphylococcus aureus, UniProt Q93SM9, M83A); assay: biochemical
T3 construct: gene vwb
Text: as §1

[4] = target: T4, vWbp (von Willebrand factor-binding protein) (Staphylococcus aureus, UniProt Q93SM9, L69A); assay: biochemical
T4 construct: gene vwb
Text: as §1

[5] = target: T5, vWbp (von Willebrand factor-binding protein) (Staphylococcus aureus, UniProt Q93SM9); assay: tube and plate coagulation assay; type: biochemical; details: purified vWbp added to heparinised rabbit blood or fibrinogen agarose, 37 °C; 16-256 μg/ml galangin
T5 construct: gene vwb; His-tagged, pET15b, E. coli BL21(DE3), Ni-NTA purified

[6] = target: T5, vWbp (von Willebrand factor-binding protein); assay: biolayer interferometry (Octet RED, Ni-NTA sensor); details: read-out: binding constant
[7] = target: T5, vWbp (von Willebrand factor-binding protein); assay: fluorescence quenching; details: read-out: WT vWbp (converted)
Text: as §1

O=c1c(O)c(-c2ccccc2)oc2cc(O)cc(O)c12 [galangin, 3,5,7-trihydroxyflavone]
Kd [1]: 9.71 µM | Kd [2]: 20 µM | Kd [3]: 7.35 µM | Kd [4]: 31.2 µM | tube and plate coagulation assay [5]: these results demonstrated that galangin can inhibit the coagulase activity of vWbp | Kd [6]: 11 µM | Kd [7]: 6.9 µM
